Source: PMC8026324, “In Vitro Antiplasmodial, Heme Polymerization, and Cytotoxicity of Hydroxyxanthone Derivatives” (Journal of Tropical Medicine, 2021)
In brackets after ≈: the same amount, converted by molar mass.

What was measured:
[1] = tested on: Plasmodium falciparum FCR-3 (chloroquine-resistant strain); test: In vitro antiplasmodial activity assay, microscopic method, strain FCR-3; type: cell-based
Outline: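 Sorbitol-synchronized ring-stage parasites at 1% parasitemia, 2% haematocrit in RPMI with 10% human O serum, exposed to compound dilutions in triplicate for 72 h at 37 °C. Parasitemia counted on Giemsa smears (≥1,000 erythrocytes); IC50 from growth inhibition by probit analysis.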

[2] = tested on: formation of β-hematin (heme polymerization); test: In vitro heme polymerization inhibitory activity (HPIA) assay; type: biochemical
Procedure: The heme polymerization inhibitory activity (HPIA) was conducted according to Basilico et al.'s modified method. The 100 μL of 1 mM hematin in 0.2 M NaOH was added into a microtube. […] Distilled water was used as a negative control. The 50 μL solution of glacial acetic acid (pH 2.6) was added into the microtube to initiate the polymerization reaction and incubated at a temperature of 37°C for 24 hours. Microtubes were centrifuged at 8000 rpm for 10 minutes and the supernatant was discarded and then washed three times using the 200 μL dimethyl sulfoxide (DMSO).Then, the deposition of the hematin crystal was dissolved with 200 μL of 0.1 M NaOH and 100 μL of solution was added into the 96-well microplate.
Absorbance was read using ELISA reader at λ 405 nm. A standard curve was made to illustrate the relationship between the concentration of hematin and its absorbance. The various concentrations of hematin (250; 125; 62.5; 31.25; 15.6; 7.8; and […]) were used to make the standard curve. The heme polymerization inhibition was expressed as IC50, which is the concentration of testing compounds that can inhibit 50% of the formation of β-hematin. The IC50 value was calculated by probit analysis using SPSS software (IBM Corp., Chicago).

MCF-7 = tested on: MCF-7; parameters: method as in earlier work; details: cited from earlier work
Hela = tested on: Hela; parameters: method as in earlier work; details: cited from earlier work

IC50 ([1]; Plasmodium falciparum, FCR3, 72 hours incubation, microscopic method, read-out: IC50 on P. falciparum FCR-3): 6.76 ± 2.38 µM
IC50 ([2]; 24 hours, 37°C, glacial acetic acid pH 2.6): 2850 µM
SMILES: O=c1c2c(O)cccc2oc2cc(O)cc(O)c12 [HX1, 1,6,8-trihydroxyxanthone]
inhibition at 6.39 µM ([1]; Plasmodium falciparum, FCR3, 6.39 μM, read-out: Growth inhibition of P. falciparum Strain FCR-3): 50.9 ± 2.31%
inhibition at 12.8 µM ([1]; Plasmodium falciparum, FCR3, 12.8 μM, read-out: Growth inhibition of P. falciparum Strain FCR-3): 55.2 ± 3.59%
inhibition at 25.59 µM ([1]; Plasmodium falciparum, FCR3, 25.59 μM, read-out: Growth inhibition of P. falciparum Strain FCR-3): 60.2 ± 2.74%
inhibition at 51.19 µM ([1]; Plasmodium falciparum, FCR3, 51.19 μM, read-out: Growth inhibition of P. falciparum Strain FCR-3): 64.4 ± 0.671%
inhibition at 102.38 µM ([1]; Plasmodium falciparum, FCR3, 102.38 μM, read-out: Growth inhibition of P. falciparum Strain FCR-3): 73.7 ± 4.28%
antiplasmodial activity category on P. falciparum FCR-3 ([1]; category by IC50): good (good (IC50 1–20 μM))
Inhibition of β-hematin ([2]; compound 1.269 mM): 33.901%
β-Hematin formed ([2]; compound 1.269 mM): 72.500 mM
Inhibition of β-hematin ([2]; compound 2.580 mM): 49.149%
β-Hematin formed ([2]; compound 2.580 mM): 55.776 mM
Inhibition of β-hematin ([2]; compound 5.119 mM): 50.359%
β-Hematin formed ([2]; compound 5.119 mM): 54.448 mM
Inhibition of β-hematin ([2]; compound 10.238 mM): 86.893%
β-Hematin formed ([2]; compound 10.238 mM): 14.376 mM
Inhibition of β-hematin ([2]; compound 20.475 mM): 91.171%
β-Hematin formed ([2]; compound 20.475 mM): 9.684 mM
cytotoxicity on MCF-7 (in words) (MCF-7): weak
IC50 on MCF-7 cell line (MCF-7; in vitro cytotoxicity): 45 µg/mL (≈ 184 µM)
cytotoxicity on Hela (in words) (Hela): weak
IC50 on Hela cell line (Hela; in vitro cytotoxicity): 67.7 µg/mL (≈ 277 µM)
